Where two headings read alike, the source gives them in different places.
What was measured:
CK1ϵ = CK1ϵ (Homo sapiens (Human), UniProt P49674); assay: LanthaScreen Eu kinase binding assay, CK1ϵ
p38α MAPK [1] = target: p38α MAPK (Homo sapiens (Human), UniProt Q16539); assay: LanthaScreen Eu kinase binding assay, p38 MAPK (IM-32 to IM-44); settings: LanthaScreen Eu binding assay (IM-32 to IM-44); read-out: p38α MAPK IC50 ± SEM
Method: The p38 MAPK IC50 values of selected compounds except IM-32 to IM-44 were determined using the HitHunter™ p38 MAP kinase binding assay from DiscoveRx Corporation (Fremont, Calif., USA). The p38 MAPK IC50 values of IM-32 to IM-44 and the CK1 IC50 values of selected compounds were determined using LanthaScreen™ Eu kinase binding assay from Invitrogen (Life Technologies, Carlsbad, Calif., USA). The assays were performed following the manufacturers' protocols in white 384-well plates (Cat. No. 3572; Corning Incorporated, Corning, N.Y., USA). SB203580 was used as the control in all assays. For the HitHunter™ p38 MAP kinase binding assay the compounds were dissolved in DMSO (5 mM stocks) and diluted to a final concentration of 2% (vol/vol) DMSO for all assays. Recombinant GST-tagged active p38α MAP kinase enzyme (Millipore, Billerica, Mass., USA) was used for the HitHunter™ p38 MAP kinase binding assay. For the LanthaScreen™ Eu kinase binding assay the compounds were dissolved in DMSO (5 mM stocks) and diluted to a final concentration of 1% (vol/vol) DMSO for all assays. Each data point was done in triplicate. The assay was run using JANUS Automated Workstation according to the protocol developed using WinPREP software (Perkin Elmer Inc., Waltham, Mass., USA). Tecan Infinite® M1000 microplate reader (Tecan Group Ltd., Minnedorf, Switzerland) was used for luminescence measurements (HitHunter™ p38 MAP kinase binding assay) and fluorescence measurements (LanthaScreen™ Eu kinase binding assay; ex=340 nm, em=665, 615 nm). All data analysis was performed using GraphPad Prism 5 software (GraphPad Software Inc.). Inhibition curves and IC50 values were generated by nonlinear regression analysis and data represent mean±SEM.
The in vitro IC50 values of the synthesized compounds against the relevant kinase targets are summarized. The IC50 values were determined using either the HitHunter™ p38 MAPK binding assay from DiscoveRx or the LanthaScreen™ Eu kinase binding assay (for p38alpha MAPK, CK1delta, and CK1epsilon) from Invitrogen.

CK1δ = CK1δ (Homo sapiens (Human), UniProt P48730); assay: LanthaScreen Eu kinase binding assay, CK1δ
Sequence of CK1δ (P48730 whole entry): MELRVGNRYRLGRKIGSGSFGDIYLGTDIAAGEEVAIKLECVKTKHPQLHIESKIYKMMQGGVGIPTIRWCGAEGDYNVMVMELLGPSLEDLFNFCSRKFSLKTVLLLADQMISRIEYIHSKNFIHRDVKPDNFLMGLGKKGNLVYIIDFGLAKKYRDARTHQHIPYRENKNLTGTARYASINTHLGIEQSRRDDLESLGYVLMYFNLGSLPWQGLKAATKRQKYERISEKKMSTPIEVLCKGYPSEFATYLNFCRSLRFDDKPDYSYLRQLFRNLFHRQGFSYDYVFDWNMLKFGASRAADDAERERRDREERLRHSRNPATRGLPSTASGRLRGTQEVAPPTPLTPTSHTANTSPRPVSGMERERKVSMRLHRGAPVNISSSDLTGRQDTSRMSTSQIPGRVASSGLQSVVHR

p38α MAPK [2] = settings: read-out: IC50 (published by companies), p38α MAPK inhibition; cited from earlier work

Sequence of CK1ϵ (P49674 whole entry): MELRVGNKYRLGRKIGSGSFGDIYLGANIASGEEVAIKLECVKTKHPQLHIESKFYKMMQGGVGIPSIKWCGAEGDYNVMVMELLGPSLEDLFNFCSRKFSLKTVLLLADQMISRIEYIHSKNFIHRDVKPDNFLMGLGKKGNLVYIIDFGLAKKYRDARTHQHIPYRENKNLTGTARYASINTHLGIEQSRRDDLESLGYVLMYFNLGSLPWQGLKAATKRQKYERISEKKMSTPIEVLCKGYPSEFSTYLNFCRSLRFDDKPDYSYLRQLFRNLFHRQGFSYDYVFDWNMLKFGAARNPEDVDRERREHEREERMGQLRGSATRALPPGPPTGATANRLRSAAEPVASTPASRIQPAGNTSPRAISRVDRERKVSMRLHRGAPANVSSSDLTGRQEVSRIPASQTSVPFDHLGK
Sequence of p38α MAPK (Q16539 whole entry, looked up): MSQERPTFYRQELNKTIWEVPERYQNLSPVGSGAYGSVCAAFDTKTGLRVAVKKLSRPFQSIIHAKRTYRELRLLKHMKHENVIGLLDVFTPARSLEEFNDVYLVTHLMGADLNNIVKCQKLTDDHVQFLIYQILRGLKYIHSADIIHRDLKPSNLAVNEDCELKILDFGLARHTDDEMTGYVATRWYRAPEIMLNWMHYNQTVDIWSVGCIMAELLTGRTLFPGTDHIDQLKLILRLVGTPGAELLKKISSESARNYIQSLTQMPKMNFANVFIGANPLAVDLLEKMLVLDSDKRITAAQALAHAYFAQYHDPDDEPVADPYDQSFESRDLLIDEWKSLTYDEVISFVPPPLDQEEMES

Cc1cccc(-c2nc(C(O)C3=CCCCC3)[nH]c2-c2ccncc2)c1 (racemic) [IM-43, Cyclohex-1-en-1-yl(5(4)-(pyridin-4-yl)-4(5)-(m-tolyl)-1H-imidazol-2-yl)methanol]
inhibition at 1 µM (CK1ϵ): 22%
IC50 (p38α MAPK [1]): 11 ± 2 nM
CK1δ inhibition at 1 μM (CK1δ; at 1 μM): No inhibition at 1 μM

Cc1cccc(-c2nc(-c3ccc([N+](=O)[O-])cc3)[nH]c2-c2ccncc2)c1 [IM-32, 4-(2-(4-nitrophenyl)-4(5)-(m-tolyl)-1H-imidazol-5(4)-yl)pyridine]
inhibition at 1 µM (CK1ϵ): 47%
IC50 (p38α MAPK [1]): 4.4 ± 2.4 nM
inhibition at 1 µM (CK1δ): 31%

Cc1cccc(-c2nc(-c3ccc(S(C)(=O)=O)cc3)[nH]c2-c2ccncc2)c1 [IM-33, 4-(2-(4-(methylsulfonyl)phenyl)-4(5)-(m-tolyl)-1H-imidazol-5(4)-yl)pyridine]
inhibition at 1 µM (CK1ϵ): 36%
IC50 (p38α MAPK [1]): 9.5 ± 2.8 nM
inhibition at 1 µM (CK1δ): 23%

Cc1cccc(-c2nc(-c3ccc(N)cc3)[nH]c2-c2ccncc2)c1 [IM-34, 4-(5(4)-(pyridin-4-yl)-4(5)-(m-tolyl)-1H-imidazol-2-yl)aniline]
inhibition at 1 µM (CK1ϵ): 28%
IC50 (p38α MAPK [1]): 2.8 ± 2 nM
inhibition at 1 µM (CK1δ): 24%

Cc1cccc(-c2nc(-c3ccc(NS(C)(=O)=O)cc3)[nH]c2-c2ccncc2)c1 [IM-35, N-(4-(5(4)-(pyridin-4-yl)-4(5)-(m-tolyl)-1H-imidazol-2-yl)phenyl)methanesulfonamide]
inhibition at 1 µM (CK1ϵ): 40%
IC50 (p38α MAPK [1]): 5 nM
inhibition at 1 µM (CK1δ): 13%

Cc1cccc(-c2nc(-c3ccc(C#N)cc3)[nH]c2-c2ccncc2)c1 [IM-36, 4-(5(4)-(pyridin-4-yl)-4(5)-(m-tolyl)-1H-imidazol-2-yl)benzonitrile]
inhibition at 1 µM (CK1ϵ): 36%
IC50 (p38α MAPK [1]): 5.3 ± 0.5 nM
inhibition at 1 µM (CK1δ): 11%

Cc1cccc(-c2nc(-c3ccc(C(=N)NO)cc3)[nH]c2-c2ccncc2)c1 [IM-37, (Z)—N′-hydroxy-4-(5(4)-(pyridin-4-yl)-4(5)-(m-tolyl)-1H-imidazol-2-yl)benzimidamide]
IC50 (CK1ϵ; Table 3, read-out: IC50 Ck1ε): 295 nM
IC50 (CK1ϵ; read-out: CK1ϵ IC50 ± SEM): 295 ± 48 nM
IC50 (p38α MAPK [1]): 3.2 ± 0.3 nM
IC50 (CK1δ; Table 3, read-out: IC50 CK1δ): 889 nM
IC50 (CK1δ; read-out: CK1δ IC50 ± SEM): 889 ± 290 nM

Cc1cccc(-c2nc(-c3ccc(C(=O)O)cc3)[nH]c2-c2ccncc2)c1 [IM-38, 4-(5(4)-(pyridin-4-yl)-4(5)-(m-tolyl)-1H-imidazol-2-yl)benzoic acid]
IC50 (CK1ϵ; Table 3, read-out: IC50 Ck1ε): 1060 nM
IC50 (CK1ϵ; read-out: CK1ϵ IC50 ± SEM): 1060 ± 108 nM
IC50 (p38α MAPK [1]): 3.3 ± 1.1 nM
IC50 (CK1δ; Table 3, read-out: IC50 CK1δ): 4710 nM
IC50 (CK1δ; read-out: CK1δ IC50 ± SEM): 4710 ± 1620 nM

Cc1cccc(-c2nc(-c3ccc(C(N)=O)cc3)[nH]c2-c2ccncc2)c1 [IM-39, 4-(5(4)-(pyridin-4-yl)-4(5)-(m-tolyl)-1H-imidazol-2-yl)benzamide]
IC50 (CK1ϵ; Table 3, read-out: IC50 Ck1ε): 300 nM
IC50 (CK1ϵ; read-out: CK1ϵ IC50 ± SEM): 300 ± 16 nM
IC50 (p38α MAPK [1]): 2.7 ± 0.3 nM
IC50 (CK1δ; Table 3, read-out: IC50 CK1δ): 787 nM
IC50 (CK1δ; read-out: CK1δ IC50 ± SEM): 787 ± 98 nM

COC(=O)c1ccc(-c2nc(-c3cccc(C)c3)c(-c3ccncc3)[nH]2)cc1 [IM-40, Methyl 4-(5(4)-(pyridin-4-yl)-4(5)-(m-tolyl)-1H-imidazol-2-yl)benzoate]
inhibition at 1 µM (CK1ϵ): 43%
IC50 (p38α MAPK [1]): 3.7 ± 0.7 nM
inhibition at 1 µM (CK1δ): 10%

Cc1cccc(-c2nc(C#CCCO)[nH]c2-c2ccncc2)c1 [IM-41, 4-(5(4)-(pyridin-4-yl)-4(5)-(m-tolyl)-1H-imidazol-2-yl)but-3-yn-1-ol]
inhibition at 1 µM (CK1ϵ): 38%
IC50 (p38α MAPK [1]): 47 ± 5 nM
inhibition at 1 µM (CK1δ): 11%

Cc1cccc(-c2nc(CN(C)C)[nH]c2-c2ccncc2)c1 [IM-42, N,N-dimethyl-1-(5(4)-(pyridin-4-yl)-4(5)-(m-tolyl)-1H-imidazol-2-yl)methanamine]
inhibition at 1 µM (CK1ϵ): 29%
IC50 (p38α MAPK [1]): 26 ± 3 nM
inhibition at 1 µM (CK1δ): 3%

Cc1cccc(-c2nc[nH]c2-c2ccncc2)c1 [IM-44, 4-(4(5)-(m-tolyl)-1H-imidazol-5(4)-yl)pyridine]
inhibition at 1 µM (CK1ϵ): 42%
IC50 (p38α MAPK [1]): 45 ± 8 nM
inhibition at 1 µM (CK1δ): 4%

Oc1ccc(-c2nc(-c3ccc(F)cc3)c(-c3ccncc3)[nH]2)cc1 [SB202190, reference compound]
IC50 (CK1ϵ; Table 3, read-out: IC50 Ck1ε): 83 nM
IC50 (CK1ϵ; read-out: CK1ϵ IC50 ± SEM): 83 ± 4 nM
IC50 (CK1δ; Table 3, read-out: IC50 CK1δ): 53 nM
IC50 (CK1δ; read-out: CK1δ IC50 ± SEM): 53 ± 7 nM
